From US12421235B2, “Bridged tricyclic carbamoylpyridone compounds and uses thereof” (Gilead Sciences, Inc., priority 2020, dated 2025) come the findings set out here.

The test system of data set [1] is pLai RLuc reporter virus in MT-4 cells. The data set is described as follows: HIV MT-4 serum shift antiviral reporter assay. The data set is classed as cell-based. Particulars: Human immunodeficiency virus 1, MT4, 72 h, read-out: RLUC CCM. The method in brief: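 MT-4 cells pre-infected 2 h with reporter virus, then dosed (1:3 dilutions) in medium with 10% FBS alone or plus 50% human serum; 72 h at 37 °C. Renilla luminescence read; EC50 = 50% signal decrease by sigmoidal fit, serum shift = EC50(HS)/EC50(no HS).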

Data set [2] has as its system HIV-1 (IIIB) in MT-4 cells. The data set is described as follows: HIV MT-4 antiviral assay. The format is cell-based. Particulars: Human immunodeficiency virus 1, MT4, 120 h, 5 days, Cell Titer Glo. An outline of the steps:
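MT-4 cells infected with HIV-1 IIIB (1:250 dilution of concentrated stock) were incubated 5 days at 37 °C with compound in 1:3 serial dilutions in RPMI/10% FBS. Viability was read by CellTiter-Glo luminescence. EC50 was the concentration causing a 50% decrease in luminescence signal, from sigmoidal dose-response fits.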
For orientation: ATP-based viability assays read luminescence as a measure of living cells.

Data set [3] in a line: High throughput microsomal stability assay (human liver microsomes). The data set is classed as in vitro ADME. Particulars: human liver microsomes, 1 uM compound, NADPH + UDPGA cofactors, 37 C. The method in brief:
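Compounds at 1 uM final, incubated at 37° C. with liver microsomes (2 mg/ml stock, alamethicin-treated) in pH 7.4 phosphate plus NADPH-regenerating/UDPGA cofactors; samples taken 0–70 min. Parent/IS peak-area ratios read by RapidFire QToF MS; half-life from linear fit of initial log decay, scaled to intrinsic clearance.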

Data set [4] is described as follows: Cytotoxicity assay in MT-4 cells. The format is cell-based. The settings on record: human, uninfected MT-4 cells, Cell Titer Glo. The method in brief: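 Uninfected MT-4 cells were incubated with 1:3 serially diluted compound in RPMI/10% FBS for 5 days at 37° C. Viability was read by CellTiter-Glo luminescence, with 10 μM puromycin as the baseline cytotoxicity control. Values are the concentration giving a 50% decrease in luminescence, from sigmoidal dose-response fits.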

For `C[C@H]1CC[C@@](O)(CF)[C@H]2CN1C(=O)c1c(O)c(=O)c(C(=O)NCc3c(F)cc(F)cc3F)cn12` [Example 44, (3S,6S,7R)-6-(fluoromethyl)-6,12-dihydroxy-3-methyl-1,11-dioxo-N-(2,4,6-trifluorobenzyl)-1,4,5,6,7,11-hexahydro-3H-2,7-methanopyrido[1,2-a][1,4]diazonine-10-carboxamide], the EC50 turned out to be 1.9 nM in data set [1] and 4 nM in data set [2]. Moreover, the HLM stability in data set [3] amounted to 3.67 mL/min/kg. For the same compound, the CC50 at 5 days in data set [4] was found to be 44700 nM.

In the case of `C[C@H]1[C@H]2CO[C@H](C2)[C@H]2CN1C(=O)c1c(O)c(=O)c(C(=O)NCc3ccc(F)cc3F)cn12` [Example 45, (3S,4S,7R,8R)—N-(2,4-difluorobenzyl)-13-hydroxy-3-methyl-1,12-dioxo-1,4,5,7,8,12-hexahydro-3H-2,8:4,7-dimethanopyrido[1,2-d][1,4,7]oxadiazecine-11-carboxamide], the EC50 in data set [1] was determined as 0.46 nM; in data set [2], 1.9 nM. The HLM stability in data set [3] was determined as 2.83 mL/min/kg. The CC50 at 5 days in data set [4] turned out to be 12400 nM.

As usually defined, the CC50 is the concentration at which the toxic effect on the cells reaches its halfway point.
